Each structure is given as a SMILES string.

The test addresses purified human Hsp90. The test can be described thus: Binding Assay: fluorescence polarization with BODIPY-labeled geldanamycin. Particulars: BODIPY-GM 10 nM, Hsp90 30 nM. As for the experimental part: Compound binding to purified Hsp90 was monitored using BODIPY-labeled geldanamycin (BODIPY-GM) in a fluorescence polarization assay adapted from Kim et al. (Journal of Biomolecular Screening 2004, 9(5):375-381). Compound dilutions (in 100% DMSO) were added to black-bottom 96-well plates (Greiner; 2% DMSO final), and equal volumes of BODIPY-GM (10 nM final) and purified human Hsp90 (Stressgen, SPP-770; 30 nM final) in assay buffer (20 mM HEPES-KOH pH 7.3, 50 mM KCl, 5 mM MgCl2, 20 mM Na2MoO4, 0.01% NP-40, 0.1 mg/mL bovine gamma globulin [Invitrogen, P2045], 2 mM DTT) were added sequentially to yield a final volume of 50 microliters. Plates were incubated overnight at room temperature. Parallel and perpendicular fluorescence measurements were read (LJL BioSystems Analyst AD plate reader) with excitation/emission wavelengths of 485/530 nm. Background fluorescence (buffer only) was subtracted, and fluorescence polarization (FP) values, expressed in mP units, were calculated from parallel and perpendicular fluorescence readings as follows: FP=(parallel−perpendicular)/(parallel+perpendicular)*1000
Percent inhibition was calculated by normalizing the FP values to those obtained in parallel reactions containing DMSO and subtracting these normalized values from 100%. Intrinsic compound fluorescence was independently monitored, and FP data points confounded by compound fluorescence were excluded from the analysis.
In general terms: In fluorescence polarisation assays a small probe gives low polarisation when free and higher when bound to something large.

The term IC50 denotes the concentration that inhibits the measured activity by half. Higher therefore signals weaker potency. Turning to `Nc1ncnc2c1nc(Sc1cc3c(cc1Br)OCO3)n2CCc1c(F)c(F)c(F)c(F)c1F` [Example 41, 8-(6-Bromo-benzo[1,3]dioxol-5-ylsulfanyl)-9-(2-pentafluorophenyl-ethyl)-9H-purin-6-ylamine], the IC50 worked out at 0.5 µM.
Same read-out and setting: the figure for `Nc1ncn(CCc2c(F)c(F)c(F)c(F)c2F)c2nc(Sc3cc4c(cc3Br)OCO4)nc1-2` [Example 42, 8-(6-bromo-benzo[1,3]dioxol-5-ylsulfanyl)-3-(2-pentafluorophenyl-ethyl)-3H-purin-6-ylamine] is above 5 µM; for `Nc1ncnc2c1nc(Sc1cc3c(cc1Br)OCO3)n2CCCc1ccccc1` [Example 43, 8-(6-Bromo-benzo[1,3]dioxol-5-ylsulfanyl)-9-(3-phenyl-propyl)-9H-purin-6-ylamine] it is 0.7 µM; for `Nc1ncn(CCCc2ccccc2)c2nc(Sc3cc4c(cc3Br)OCO4)nc1-2` [Example 44, 8-(6-bromo-benzo[1,3]dioxol-5-ylsulfanyl)-3-(3-phenyl-propyl)-3H-purin-6-ylamine] it is 27 µM.
On to `COc1cc(Sc2nc3c(N)ncnc3n2CCc2ccccc2)cc(OC)c1OC` [Example 45, 9-Phenethyl-8-(3,4,5-trimethoxy-phensulfanyl)-9H-purin-6-ylamine], for which the IC50 was determined as 8.1 µM.
Still for that read-out and setting: the figure for `COc1cc(Sc2nc3c(N)ncn(CCc4ccccc4)c-3n2)cc(OC)c1OC` [Example 46, 3-phenethyl-8-(3,4,5-trimethoxy-phenylsulfanyl)-3H-purin-6-ylamine] is above 10 µM; for `COc1cc(Sc2nc3c(N)ncnc3n2CCCc2ccccc2)cc(OC)c1OC` [Example 47, 9-(3-Phenyl-propyl)-8-(3,4,5-trimethoxy-phenylsulfanyl)-9H-purin-6-ylamine] it is above 10 µM.
The same measure, in the same setting: as for `COc1cc(Sc2nc3c(N)ncn(CCCc4ccccc4)c-3n2)cc(OC)c1OC` [Example 48, 3-(3-phenyl-propyl)-8-(3,4,5-trimethoxy-phenylsulfanyl)-3H-purin-6-ylamine], the figure is above 10 µM.
As a reminder, the % Inhibition is the change of the read-out against control, counted positive when it falls. For `Nc1ncnc2c1nc(Sc1ccc3c(c1)OCO3)n2CCn1cccc1` [Example 49, 8-(Benzo[1,3]dioxol-5-ylsulfanyl)-9-(2-pyrrol-1-yl-ethyl)-9H-purin-6-ylamine], the “% Inhibition at 5 μM Compound Concentration” value (from here on “% Inhibition”) is listed as 55% and the IC50 amounted to 1.2 µM.
Consider `Nc1ncn(CCn2cccc2)c2nc(Sc3ccc4c(c3)OCO4)nc1-2` [Example 50, 8-(benzo[1,3]dioxol-5-ylsulfanyl)-3-(2-pyrrol-1-yl-ethyl)-3H-purin-6-ylamine], for which the “% Inhibition” value is given as 3%.
With `Nc1ncnc2c1nc(Sc1ccc3c(c1)OCO3)n2CCCn1cccc1` [Example 51, 8-(Benzo[1,3]dioxol-5-ylsulfanyl)-9-(3-pyrrol-1-yl-propyl)-9H-purin-6-ylamine], the “% Inhibition” value is 52% and the IC50 is 1.5 µM.
Consider `Nc1ncn(CCCn2cccc2)c2nc(Sc3ccc4c(c3)OCO4)nc1-2` [Example 52, 8-(benzo[1,3]dioxol-5-ylsulfanyl)-3-(3-pyrrol-1-yl-propyl)-3H-purin-6-ylamine], for which the “% Inhibition” value is 0%.
`Nc1ncnc2c1nc(Sc1cc3c(cc1Br)OCO3)n2CCc1ccccc1Cl` [Example 53, 8-(6-Bromo-benzo[1,3]dioxol-5-ylsulfanyl)-9-[2-(2-chloro-phenyl)-ethyl]-9H-purin-6-ylamine] had an IC50 of 0.045 µM.
As for `Nc1ncn(CCc2ccccc2Cl)c2nc(Sc3cc4c(cc3Br)OCO4)nc1-2` [Example 54, 8-(6-bromo-benzo[1,3]dioxol-5-ylsulfanyl)-3-[2-(2-chloro-phenyl)-ethyl]-3H-purin-6-ylamine], the “% Inhibition” value came to 13%.
For the compound `COc1ccc(OC)c(Sc2nc3c(N)ncnc3n2CCc2c(C)cc(C)cc2C)c1` [Example 55, 8-(2,5-Dimethoxy-phenylsulfanyl)-9-[2-(2,4,6-trimethyl-phenyl)-ethyl]-9H-purin-6-ylamine], the concentration for half-maximal inhibition (IC50) was 1.7 µM.
Regarding `COc1ccc(OC)c(Sc2nc3c(N)ncn(CCc4c(C)cc(C)cc4C)c-3n2)c1` [Example 56, 8-(2,5-dimethoxy-phenylsulfanyl)-3-[2-(2,4,6-trimethyl-phenyl)-ethyl]-3H-purin-6-ylamine], the “% Inhibition” value is given as 3%.
Consider `CCC(Cn1c(Sc2cc3c(cc2Br)OCO3)nc2c(N)ncnc21)c1ccccc1` (stereo not shown) [Example 57, 8-(6-Bromo-benzo[1,3]dioxol-5-ylsulfanyl)-9-(2-phenyl-butyl)-9H-purin-6-ylamine], for which the IC50 worked out at 0.4 µM.
`CCC(Cn1cnc(N)c2nc(Sc3cc4c(cc3Br)OCO4)nc1-2)c1ccccc1` (stereo not shown) [Example 58, 8-(6-bromo-benzo[1,3]dioxol-5-ylsulfanyl)-3-(2-phenyl-butyl)-3H-purin-6-ylamine]: the “% Inhibition” value worked out at 8%.
In turn, `COc1ccc(C2(Cn3c(Sc4cc5c(cc4Br)OCO5)nc4c(N)ncnc43)CC2)cc1` [Example 59, 8-(6-Bromo-benzo[1,3]dioxol-5-ylsulfanyl)-9-[1-(4-methoxy-phenyl)-cyclopropylmethyl]-9H-purin-6-ylamine] showed an IC50 above 25 µM.
As for `COc1ccc(C2(Cn3cnc(N)c4nc(Sc5cc6c(cc5Br)OCO6)nc3-4)CC2)cc1` [Example 60, 8-(6-bromo-benzo[1,3]dioxol-5-ylsulfanyl)-3-[1-(4-methoxy-phenyl)-cyclopropylmethyl]-3H-purin-6-ylamine], the “% Inhibition” value was found to be 30%.
`COc1ccc(OC)c(Sc2nc3c(N)ncnc3n2CC2(c3ccc(Cl)cc3)CCC2)c1` [Example 61, 9-[1-(4-Chloro-phenyl)-cyclobutylmethyl]-8-(2,5-dimethoxy-phenylsulfanyl)-9H-purin-6-ylamine] gave a 50% inhibitory concentration (IC50) above 10 µM.
In turn, `COc1ccc(OC)c(Sc2nc3c(N)ncn(CC4(c5ccc(Cl)cc5)CCC4)c-3n2)c1` [Example 62, 3-[1-(4-chloro-phenyl)-cyclobutylmethyl]-8-(2,5-dimethoxy-phenylsulfanyl)-3H-purin-6-ylamine] displayed an IC50 above 10 µM.
`COc1ccc(OC)c(Sc2nc3c(N)ncnc3n2CCc2ccc(C(C)=O)cc2)c1` [Example 63, 1-(4-{2-[6-Amino-8-(2,5-dimethoxy-phenylsulfanyl)-purin-9-yl]-ethyl}-phenyl)-ethanone]: the IC50 was above 5 µM.
Still for that read-out and setting: the figure for `COc1ccc(OC)c(Sc2nc3c(N)ncn(CCc4ccc(C(C)=O)cc4)c-3n2)c1` [Example 64, 1-(4-{2-[6-amino-8-(2,5-dimethoxy-phenylsulfanyl)-purin-3-yl]-ethyl}-phenyl)-ethanone] is above 5 µM.
In the case of `COc1ccc(OC)c(Sc2nc3c(N)ncnc3n2CCn2cccc2)c1` [Example 65, 8-(2,5-Dimethoxy-phenylsulfanyl)-9-(2-pyrrol-1-yl-ethyl)-9H-purin-6-ylamine], the “% Inhibition” value came out at 61% and the IC50 turned out to be 0.5 µM.
For the compound `COc1ccc(OC)c(Sc2nc3c(N)ncn(CCn4cccc4)c-3n2)c1` [Example 66, 8-(2,5-dimethoxy-phenylsulfanyl)-3-(2-pyrrol-1-yl-ethyl)-3H-purin-6-ylamine], the “% Inhibition” value is recorded as 5%.
Regarding `COc1ccc(OC)c(Sc2nc3c(N)ncnc3n2CCc2cccc3ccccc23)c1` [Example 67, 8-(2,5-Dimethoxy-phenylsulfanyl)-9-(2-naphthalen-1-yl-ethyl)-9H-purin-6-ylamine], the “% Inhibition” value is given as 56% and the IC50 was found to be 1.5 µM.
In the case of `COc1ccc(OC)c(Sc2nc3c(N)ncn(CCc4cccc5ccccc45)c-3n2)c1` [Example 68, 8-(2,5-dimethoxy-phenylsulfanyl)-3-(2-naphthalen-1-yl-ethyl)-3H-purin-6-ylamine], the “% Inhibition” value is 0%.
As to `COc1ccc(OC)c(Sc2nc3c(N)ncnc3n2CCc2ccccc2C)c1` [Example 69, 8-(2,5-Dimethoxy-phenylsulfanyl)-9-(2-o-tolyl-ethyl)-9H-purin-6-ylamine], the “% Inhibition” value came out at 69% and the IC50 was found to be 0.25 µM.
`COc1ccc(OC)c(Sc2nc3c(N)ncn(CCc4ccccc4C)c-3n2)c1` [Example 70, 8-(2,5-dimethoxy-phenylsulfanyl)-3-(2-o-tolyl-ethyl)-3H-purin-6-ylamine]: the “% Inhibition” value amounted to 7%.
As to `COc1ccc(OC)c(Sc2nc3c(N)ncnc3n2CCc2ccc(Br)cc2)c1` [Example 71, 9-[2-(4-Bromo-phenyl)-ethyl]-8-(2,5-dimethoxy-phenylsulfanyl)-9H-purin-6-ylamine], the “% Inhibition” value was 41% and the IC50 was above 25 µM.
Turning to `COc1ccc(OC)c(Sc2nc3c(N)ncn(CCc4ccc(Br)cc4)c-3n2)c1` [Example 72, 3-[2-(4-bromo-phenyl)-ethyl]-8-(2,5-dimethoxy-phenylsulfanyl)-3H-purin-6-ylamine], the “% Inhibition” value amounted to 0%.
`COc1ccc(OC)c(Sc2nc3c(N)ncnc3n2CCc2cccc(Cl)c2Cl)c1` [Example 73, 9-[2-(2,3-Dichloro-phenyl)-ethyl]-8-(2,5-dimethoxy-phenylsulfanyl)-9H-purin-6-ylamine]: the “% Inhibition” value is 2% and the IC50 is above 3 µM.
